What was measured:
[1] = target: Histamine H1 receptor (Cavia porcellus, UniProt P31389)
[2] = target: Histamine H2 receptor (Cavia porcellus, UniProt P47747)
[3] = target: Hrh3 protein (Rattus norvegicus, UniProt Q5PPG3)
[4] = target: Nischarin (Rattus norvegicus, UniProt Q4G017)
Nischarin, sequence (Q4G017 whole entry): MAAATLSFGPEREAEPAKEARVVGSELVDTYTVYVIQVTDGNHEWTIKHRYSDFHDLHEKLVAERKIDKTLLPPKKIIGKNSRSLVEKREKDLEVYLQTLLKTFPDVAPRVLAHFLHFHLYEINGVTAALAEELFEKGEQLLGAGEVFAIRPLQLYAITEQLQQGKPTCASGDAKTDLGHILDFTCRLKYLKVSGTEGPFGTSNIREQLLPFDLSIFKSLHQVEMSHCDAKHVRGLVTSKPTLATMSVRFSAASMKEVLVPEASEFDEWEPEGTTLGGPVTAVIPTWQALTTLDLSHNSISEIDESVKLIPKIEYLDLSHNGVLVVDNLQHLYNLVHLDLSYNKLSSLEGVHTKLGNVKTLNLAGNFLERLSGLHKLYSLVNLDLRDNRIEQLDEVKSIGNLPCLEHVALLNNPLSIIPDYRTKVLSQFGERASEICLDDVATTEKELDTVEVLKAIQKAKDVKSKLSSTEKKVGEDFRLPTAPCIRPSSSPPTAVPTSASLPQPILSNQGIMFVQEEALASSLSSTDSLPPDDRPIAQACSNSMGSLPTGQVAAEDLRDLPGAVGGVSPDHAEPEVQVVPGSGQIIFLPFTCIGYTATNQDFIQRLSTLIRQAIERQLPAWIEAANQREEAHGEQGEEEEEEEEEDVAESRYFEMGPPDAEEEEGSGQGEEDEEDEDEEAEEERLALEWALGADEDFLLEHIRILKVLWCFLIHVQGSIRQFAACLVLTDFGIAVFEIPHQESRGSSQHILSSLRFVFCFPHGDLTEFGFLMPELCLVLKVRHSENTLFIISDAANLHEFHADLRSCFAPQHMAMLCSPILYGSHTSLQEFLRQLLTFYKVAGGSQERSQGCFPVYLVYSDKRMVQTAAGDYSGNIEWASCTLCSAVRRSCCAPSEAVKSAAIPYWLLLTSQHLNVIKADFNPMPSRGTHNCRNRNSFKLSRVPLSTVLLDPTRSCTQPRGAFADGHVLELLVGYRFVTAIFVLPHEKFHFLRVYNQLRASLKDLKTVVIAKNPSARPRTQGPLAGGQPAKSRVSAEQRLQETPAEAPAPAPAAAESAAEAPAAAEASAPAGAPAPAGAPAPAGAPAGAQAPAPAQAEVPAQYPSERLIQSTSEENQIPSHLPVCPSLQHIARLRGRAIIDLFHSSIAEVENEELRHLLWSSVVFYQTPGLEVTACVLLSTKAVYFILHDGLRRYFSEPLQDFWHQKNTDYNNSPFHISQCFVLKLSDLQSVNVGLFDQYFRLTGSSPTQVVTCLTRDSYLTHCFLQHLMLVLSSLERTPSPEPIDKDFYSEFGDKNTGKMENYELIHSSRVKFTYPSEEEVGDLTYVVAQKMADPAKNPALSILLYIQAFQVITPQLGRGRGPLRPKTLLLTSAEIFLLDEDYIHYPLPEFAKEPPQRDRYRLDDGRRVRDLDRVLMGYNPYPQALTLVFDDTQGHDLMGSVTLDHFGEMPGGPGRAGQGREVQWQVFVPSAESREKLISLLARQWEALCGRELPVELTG

Hrh3 protein, sequence (Q5PPG3 whole entry): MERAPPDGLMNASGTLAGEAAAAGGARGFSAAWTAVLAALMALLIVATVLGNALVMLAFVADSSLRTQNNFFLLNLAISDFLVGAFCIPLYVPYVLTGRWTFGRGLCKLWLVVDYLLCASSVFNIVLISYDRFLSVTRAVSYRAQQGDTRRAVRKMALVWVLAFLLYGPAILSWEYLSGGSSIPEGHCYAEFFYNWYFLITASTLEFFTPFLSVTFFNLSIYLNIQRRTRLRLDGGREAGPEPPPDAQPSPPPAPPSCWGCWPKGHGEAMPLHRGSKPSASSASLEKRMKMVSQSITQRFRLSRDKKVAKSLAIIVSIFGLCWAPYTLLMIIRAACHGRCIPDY
Histamine H2 receptor, sequence (P47747 whole entry): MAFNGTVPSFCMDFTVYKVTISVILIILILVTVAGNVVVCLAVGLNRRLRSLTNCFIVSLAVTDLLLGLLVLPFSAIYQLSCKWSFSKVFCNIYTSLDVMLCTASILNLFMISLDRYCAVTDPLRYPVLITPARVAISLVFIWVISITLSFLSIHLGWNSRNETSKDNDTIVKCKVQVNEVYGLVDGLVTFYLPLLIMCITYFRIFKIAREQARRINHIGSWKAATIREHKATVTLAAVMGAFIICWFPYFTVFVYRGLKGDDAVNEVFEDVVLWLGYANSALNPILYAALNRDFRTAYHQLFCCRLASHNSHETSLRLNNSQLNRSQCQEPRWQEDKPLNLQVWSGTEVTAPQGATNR
Histamine H1 receptor, sequence (P31389 whole entry): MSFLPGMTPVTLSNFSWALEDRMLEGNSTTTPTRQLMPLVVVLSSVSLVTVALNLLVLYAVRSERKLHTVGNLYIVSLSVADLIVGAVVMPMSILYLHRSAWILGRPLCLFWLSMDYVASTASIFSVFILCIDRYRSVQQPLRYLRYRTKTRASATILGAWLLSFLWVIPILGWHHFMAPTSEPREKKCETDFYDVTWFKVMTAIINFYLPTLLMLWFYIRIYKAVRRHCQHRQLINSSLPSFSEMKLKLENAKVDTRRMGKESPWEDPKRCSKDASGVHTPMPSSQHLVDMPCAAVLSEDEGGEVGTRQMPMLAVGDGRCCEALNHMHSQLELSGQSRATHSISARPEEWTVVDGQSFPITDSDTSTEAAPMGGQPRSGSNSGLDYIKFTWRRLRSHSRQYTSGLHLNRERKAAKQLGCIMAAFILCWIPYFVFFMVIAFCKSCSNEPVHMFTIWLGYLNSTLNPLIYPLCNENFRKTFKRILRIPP

Ki [1]: 1000 nM
Ki [2]: 1000 nM
Ki [3]: 1.9 nM
Ki [4]: 155 nM
SMILES: O=C(NCc1ccc(Cc2c[nH]cn2)cc1)Nc1cc(Cl)cc(Cl)c1
